Reference: patent US12398154B2, “Azaquinazoline pan-KRas inhibitors” (Mirati Therapeutics, Inc., priority 2020, dated 2025)

Key:
KRas G13D = target: T1, KRas G13D (Homo sapiens, UniProt P01116, G13D); assay: KRas binding assay (TR-FRET displacement);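 further: One-hour room temperature incubation before TR-FRET reading, IC50 from a four-parameter curve fit to percent-of-control data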
T1 construct: Biotinylated KRas (corresponding to amino acids 1-169, produced at Accelegan Inc.); biotin (biotinylated); purchased Accelegan Inc
T1 sequence (P01116 1-169 isoform P01116-2 G13D): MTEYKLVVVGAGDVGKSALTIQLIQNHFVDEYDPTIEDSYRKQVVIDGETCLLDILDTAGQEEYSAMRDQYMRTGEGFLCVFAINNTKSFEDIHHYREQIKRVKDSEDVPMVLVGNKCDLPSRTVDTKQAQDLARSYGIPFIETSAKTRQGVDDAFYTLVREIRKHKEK
Description: (§1) The ability of a compound to bind to KRas was measured using a TR-FRET displacement assay. […] After a 60-minute incubation at room temperature, the reaction was measured using a BMG LABTECH CLARIO star Plus via TR-FRET. […] The POC values were fit to a 4-parameter IC50 equation and the IC50 value reported.

KRas Q61H = target: T2, KRas Q61H (Homo sapiens, UniProt P01116, Q61H); assay: KRas binding assay (TR-FRET displacement);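 further: TR-FRET signal read after one hour at room temperature, IC50 derived by four-parameter fitting of percent-of-control values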
T2 construct: Biotinylated KRas (corresponding to amino acids 1-169, produced at Accelegan Inc.); biotin (biotinylated); purchased Accelegan Inc
T2 sequence (P01116 1-169 isoform P01116-2 Q61H): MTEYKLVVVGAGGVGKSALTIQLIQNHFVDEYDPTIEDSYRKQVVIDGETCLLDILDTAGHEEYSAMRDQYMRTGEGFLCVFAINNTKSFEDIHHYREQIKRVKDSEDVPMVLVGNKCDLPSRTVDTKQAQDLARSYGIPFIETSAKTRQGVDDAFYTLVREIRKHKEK
Description: as §1

KRas G12D = KRas G12D (Homo sapiens, UniProt P01116, G12D); assay: biochemical;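 further: TR-FRET displacement binding assay on KRas, read after a one-hour incubation at room temperature, IC50 fitted from percent-of-control values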
KRas G12D, sequence (P01116 1-169 isoform P01116-2 G12D): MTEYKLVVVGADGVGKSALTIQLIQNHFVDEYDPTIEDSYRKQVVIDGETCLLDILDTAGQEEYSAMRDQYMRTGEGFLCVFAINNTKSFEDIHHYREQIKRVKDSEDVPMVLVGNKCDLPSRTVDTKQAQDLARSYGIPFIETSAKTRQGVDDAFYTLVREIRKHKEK
Description: as §1

KRas G12V = KRas G12V (Homo sapiens, UniProt P01116, G12V); assay: biochemical;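 further: KRas binding measured by TR-FRET displacement at room temperature, IC50 fitted from percent of control values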
KRas G12V, sequence (P01116 1-169 isoform P01116-2 G12V): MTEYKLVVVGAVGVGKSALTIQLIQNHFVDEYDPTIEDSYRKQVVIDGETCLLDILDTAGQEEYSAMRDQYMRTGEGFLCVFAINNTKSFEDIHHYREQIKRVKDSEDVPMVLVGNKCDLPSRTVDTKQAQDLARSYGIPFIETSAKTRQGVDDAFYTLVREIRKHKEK
Description: as §1

KRas G12R = KRas G12R (Homo sapiens, UniProt P01116, G12R); assay: biochemical;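 further: TR-FRET displacement assay of compound binding to KRas, read after one hour at room temperature, potency from a four-parameter fit of percent-of-control values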
KRas G12R, sequence (P01116 1-169 isoform P01116-2 G12R): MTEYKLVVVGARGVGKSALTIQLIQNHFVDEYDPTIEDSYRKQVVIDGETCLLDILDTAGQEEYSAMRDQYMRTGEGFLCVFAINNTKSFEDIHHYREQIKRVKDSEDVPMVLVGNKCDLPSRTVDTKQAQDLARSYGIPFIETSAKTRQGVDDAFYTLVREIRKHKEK
Description: as §1

KRas G12A = KRas G12A (Homo sapiens, UniProt P01116, G12A); assay: biochemical;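 further: binding to KRas measured by TR-FRET displacement after one hour at room temperature, IC50 from a four-parameter fit of percent-of-control values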
KRas G12A, sequence (P01116 1-169 isoform P01116-2 G12A): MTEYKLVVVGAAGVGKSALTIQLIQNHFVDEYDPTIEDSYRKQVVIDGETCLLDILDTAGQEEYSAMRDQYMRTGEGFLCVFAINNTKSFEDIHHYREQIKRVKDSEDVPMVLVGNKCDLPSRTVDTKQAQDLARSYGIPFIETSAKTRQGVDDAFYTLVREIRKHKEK
Description: as §1

KRas G12S = KRas G12S (Homo sapiens, UniProt P01116, G12S); assay: biochemical;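 further: TR-FRET displacement binding to KRas, read after one hour incubation at room temperature, IC50 from four-parameter fit of percent of control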
KRas G12S, sequence (P01116 1-169 isoform P01116-2 G12S): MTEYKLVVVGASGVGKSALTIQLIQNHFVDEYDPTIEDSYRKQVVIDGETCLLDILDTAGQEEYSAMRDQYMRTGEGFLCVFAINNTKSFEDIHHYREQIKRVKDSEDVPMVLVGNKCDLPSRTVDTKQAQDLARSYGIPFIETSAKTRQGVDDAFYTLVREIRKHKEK
Description: as §1

KRas G12C = KRas G12C (Homo sapiens, UniProt P01116, G12C); assay: biochemical;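 further: binding to KRas assessed by TR-FRET displacement after one hour incubation at room temperature, potency fitted from percent-of-control values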
KRas G12C, sequence (P01116 1-169 isoform P01116-2 G12C): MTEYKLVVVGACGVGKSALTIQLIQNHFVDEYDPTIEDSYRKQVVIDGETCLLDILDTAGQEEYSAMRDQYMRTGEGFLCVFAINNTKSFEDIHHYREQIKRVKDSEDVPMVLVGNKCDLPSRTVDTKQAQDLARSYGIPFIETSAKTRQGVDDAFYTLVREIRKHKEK
Description: as §1

KRas WT = KRas WT (Homo sapiens, UniProt P01116); assay: biochemical;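 further: binding to KRas read as TR-FRET displacement after a one-hour room-temperature incubation, IC50 derived from percent-of-control values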
KRas WT, sequence (P01116 1-169 isoform P01116-2): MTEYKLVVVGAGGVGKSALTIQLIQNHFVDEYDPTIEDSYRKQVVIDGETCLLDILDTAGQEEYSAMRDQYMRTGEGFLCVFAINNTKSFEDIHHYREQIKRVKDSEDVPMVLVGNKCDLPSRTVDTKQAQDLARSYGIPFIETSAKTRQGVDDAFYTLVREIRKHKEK
Description: as §1

SMILES: CN(C)C(=O)c1cc2n(n1)CCCN(c1nc(OCC34CCCN3CCC4)nc3c(F)c(-c4cccc5cccc(F)c45)ncc13)C2 [Example 260, 5-(8-fluoro-7-(8-fluoronaphthalen-1-yl)-2-((hexahydro-1H-pyrrolizin-7a-yl)methoxy)pyrido[4,3-d]pyrimidin-4-yl)-N,N-dimethyl-5,6,7,8-tetrahydro-4H-pyrazolo[1,5-a][1,4]diazepine-2-carboxamide]
- IC50 (KRas G13D): 1170 nM
- IC50 (KRas Q61H): 1060 nM
- IC50 (KRas G12D): 0.061 µM
- IC50 (KRas G12V): 0.204 µM
- IC50 (KRas G12R): 0.455 µM
- IC50 (KRas G12A): 0.294 µM
- IC50 (KRas G12S): 0.419 µM
- IC50 (KRas G12C): 0.591 µM
- IC50 (KRas WT): 0.864 µM

SMILES: Fc1c(-c2cccc3cccc(F)c23)ncc2c(NCc3ccc4nonc4c3)nc(OCC34CCCN3CCC4)nc12 [Example 125, N-(benzo[c][1,2,5]oxadiazol-5-ylmethyl)-8-fluoro-7-(8-fluoronaphthalen-1-yl)-2-((tetrahydro-1H-pyrrolizin-7a(5H)-yl)methoxy)pyrido[4,3-d]pyrimidin-4-amine]
- IC50 (KRas G13D): 29100 nM
- IC50 (KRas Q61H): 39000 nM
- IC50 (KRas G12D): 60.4 µM
- IC50 (KRas G12V): 3.92 µM
- IC50 (KRas G12R): 4.39 µM
- IC50 (KRas G12A): 5.52 µM
- IC50 (KRas G12S): 7.42 µM
- IC50 (KRas G12C): 4.25 µM
- IC50 (KRas WT): 13.3 µM

SMILES: OCC12CC(Nc3nc(OCC45CCCN4CCC5)nc4c(F)c(-c5cccc6cccc(F)c56)ncc34)(C1)C2 [Example 85, (3-((8-fluoro-7-(8-fluoronaphthalen-1-yl)-2-((hexahydro-1H-pyrrolizin-7a-yl)methoxy)pyrido[4,3-d]pyrimidin-4-yl)amino)bicyclo[1.1.1]pentan-1-yl)methanol]
- IC50 (KRas G13D): 4660 nM
- IC50 (KRas Q61H): 10900 nM
- IC50 (KRas G12D): 44 µM
- IC50 (KRas G12V): 3.7 µM
- IC50 (KRas G12R): 2.12 µM
- IC50 (KRas G12A): 2.85 µM
- IC50 (KRas G12S): 4.64 µM
- IC50 (KRas G12C): 2.15 µM
- IC50 (KRas WT): 4.52 µM

SMILES: Fc1c(-c2cccc3cccc(F)c23)ncc2c(N3CCCC4(CC(F)C4)C3)nc(OCC34CCCN3CCC4)nc12 (stereo not drawn) [Example 234, 8-fluoro-4-(2-fluoro-6-azaspiro[3.5]nonan-6-yl)-7-(8-fluoronaphthalen-1-yl)-2-((hexahydro-1H-pyrrolizin-7a-yl)methoxy)pyrido[4,3-d]pyrimidine]
- IC50 (KRas G13D): 1980 nM
- IC50 (KRas Q61H): 2590 nM
- IC50 (KRas G12D): 2.02 µM
- IC50 (KRas G12V): 1.6 µM
- IC50 (KRas G12R): 1.85 µM
- IC50 (KRas G12A): 2.3 µM
- IC50 (KRas G12S): 1.76 µM
- IC50 (KRas G12C): 1.62 µM
- IC50 (KRas WT): 2.64 µM

SMILES: O=C1CC2(CCN(c3nc(OCC45CCCN4CCC5)nc4c(F)c(-c5cccc6cccc(F)c56)ncc34)CC2)N1 [Example 77, 7-(8-fluoro-7-(8-fluoronaphthalen-1-yl)-2-((hexahydro-1H-pyrrolizin-7a-yl)methoxy)pyrido[4,3-d]pyrimidin-4-yl)-1,7-diazaspiro[3.5]nonan-2-one]
- IC50 (KRas G13D): 1210 nM
- IC50 (KRas Q61H): 1910 nM
- IC50 (KRas G12D): 12.8 µM
- IC50 (KRas G12V): 1.35 µM
- IC50 (KRas G12R): 2.21 µM
- IC50 (KRas G12A): 1.06 µM
- IC50 (KRas G12S): 1.17 µM
- IC50 (KRas G12C): 1.64 µM
- IC50 (KRas WT): 1.41 µM

SMILES: Fc1c(-c2cccc3cccc(F)c23)ncc2c(NCCCn3cnnn3)nc(OCC34CCCN3CCC4)nc12 [Example 119, N-(3-(1H-tetrazol-1-yl)propyl)-8-fluoro-7-(8-fluoronaphthalen-1-yl)-2-((tetrahydro-1H-pyrrolizin-7a(5H)-yl)methoxy)pyrido[4,3-d]pyrimidin-4-amine]
- IC50 (KRas G13D): 17200 nM
- IC50 (KRas Q61H): 27600 nM
- IC50 (KRas G12D): 31.9 µM
- IC50 (KRas G12V): 18 µM
- IC50 (KRas G12R): 15.6 µM
- IC50 (KRas G12A): 14.4 µM
- IC50 (KRas G12S): 14.6 µM
- IC50 (KRas G12C): 11.6 µM
- IC50 (KRas WT): 15.7 µM

SMILES: Fc1c(-c2cccc3cccc(F)c23)ncc2c(NCCc3c[nH]nn3)nc(OCC34CCCN3CCC4)nc12 [Example 115, N-(2-(1H-1,2,3-triazol-4-yl)ethyl)-8-fluoro-7-(8-fluoronaphthalen-1-yl)-2-((tetrahydro-1H-pyrrolizin-7a(5H)-yl)methoxy)pyrido[4,3-d]pyrimidin-4-amine]
- IC50 (KRas G13D): 21200 nM
- IC50 (KRas Q61H): 22300 nM
- IC50 (KRas G12D): 30.9 µM
- IC50 (KRas G12V): 5.8 µM
- IC50 (KRas G12R): 4.64 µM
- IC50 (KRas G12A): 10.5 µM
- IC50 (KRas G12S): 10.9 µM
- IC50 (KRas G12C): 6.56 µM
- IC50 (KRas WT): 11.6 µM

SMILES: CN(C)CC1(COc2nc(N3CCCC(C)(O)C3)c3cnc(-c4cccc5cccc(F)c45)c(F)c3n2)CC1 (stereo not drawn) [Example 256, 1-(2-((1-((dimethylamino)methyl)cyclopropyl)methoxy)-8-fluoro-7-(8-fluoronaphthalen-1-yl)pyrido[4,3-d]pyrimidin-4-yl)-3-methylpiperidin-3-ol]
- IC50 (KRas G13D): 3800 nM
- IC50 (KRas Q61H): 6020 nM
- IC50 (KRas G12D): 2.42 µM
- IC50 (KRas G12V): 4.54 µM
- IC50 (KRas G12R): 8.14 µM
- IC50 (KRas G12A): 4.63 µM
- IC50 (KRas G12S): 5.31 µM
- IC50 (KRas G12C): 4.05 µM
- IC50 (KRas WT): 4.03 µM

SMILES: NC(=O)C1CCCN(c2nc(OCC34CCCN3CCC4)nc3c(F)c(-c4cccc5cccc(F)c45)ncc23)C1 (stereo not drawn) [Example 86, 1-(8-fluoro-7-(8-fluoronaphthalen-1-yl)-2-((hexahydro-1H-pyrrolizin-7a-yl)methoxy)pyrido[4,3-d]pyrimidin-4-yl)piperidine-3-carboxamide]
- IC50 (KRas G13D): 3000 nM
- IC50 (KRas Q61H): 4780 nM
- IC50 (KRas G12D): 6.9 µM
- IC50 (KRas G12V): 3.1 µM
- IC50 (KRas G12R): 8.49 µM
- IC50 (KRas G12A): 2.25 µM
- IC50 (KRas G12S): 2.39 µM
- IC50 (KRas G12C): 3.08 µM
- IC50 (KRas WT): 2.41 µM

SMILES: CCc1cccc2cccc(-c3ncc4c(NCc5cccnc5N)nc(OCC56CCCN5CCC6)nc4c3F)c12 [Example 204, N-((2-aminopyridin-3-yl)methyl)-7-(8-ethylnaphthalen-1-yl)-8-fluoro-2-((hexahydro-1H-pyrrolizin-7a-yl)methoxy)pyrido[4,3-d]pyrimidin-4-amine]
- IC50 (KRas G13D): 317 nM
- IC50 (KRas Q61H): 283 nM
- IC50 (KRas G12D): 1.29 µM
- IC50 (KRas G12V): 0.043 µM
- IC50 (KRas G12R): 0.021 µM
- IC50 (KRas G12A): 0.038 µM
- IC50 (KRas G12S): 0.051 µM
- IC50 (KRas G12C): 0.02 µM
- IC50 (KRas WT): 0.233 µM

SMILES: Nc1ncccc1CNc1nc(OCC23CCCN2CCC3)nc2c(F)c(-c3cccc4cccc(F)c34)ncc12 [Example 70, N-((2-aminopyridin-3-yl)methyl)-8-fluoro-7-(8-fluoronaphthalen-1-yl)-2-((hexahydro-1H-pyrrolizin-7a-yl)methoxy)pyrido[4,3-d]pyrimidin-4-amine]
- IC50 (KRas G13D): 11700 nM
- IC50 (KRas Q61H): 10800 nM
- IC50 (KRas G12D): 14.1 µM
- IC50 (KRas G12V): 0.397 µM
- IC50 (KRas G12R): 0.215 µM
- IC50 (KRas G12A): 0.403 µM
- IC50 (KRas G12S): 0.418 µM
- IC50 (KRas G12C): 0.224 µM
- IC50 (KRas WT): 2.86 µM

SMILES: Fc1c(-c2cccc3cccc(F)c23)ncc2c(NCCc3cnoc3)nc(OCC34CCCN3CCC4)nc12 [Example 219, 8-fluoro-7-(8-fluoronaphthalen-1-yl)-N-(2-(isoxazol-4-yl)ethyl)-2-((tetrahydro-1H-pyrrolizin-7a(5H)-yl)methoxy)pyrido[4,3-d]pyrimidin-4-amine]
- IC50 (KRas G13D): 18100 nM
- IC50 (KRas Q61H): 20200 nM
- IC50 (KRas G12D): 65.3 µM
- IC50 (KRas G12V): 8.83 µM
- IC50 (KRas G12R): 4.78 µM
- IC50 (KRas G12A): 16.2 µM
- IC50 (KRas G12S): 13.1 µM
- IC50 (KRas G12C): 5.65 µM
- IC50 (KRas WT): 15 µM

SMILES: Fc1c(-c2cccc3cccc(F)c23)ncc2c(NCCCc3cc[nH]n3)nc(OCC34CCCN3CCC4)nc12 [Example 84, N-(3-(1H-pyrazol-3-yl)propyl)-8-fluoro-7-(8-fluoronaphthalen-1-yl)-2-((hexahydro-1H-pyrrolizin-7a-yl)methoxy)pyrido[4,3-d] pyrimidin-4-amine]
- IC50 (KRas G13D): 5070 nM
- IC50 (KRas Q61H): 5860 nM
- IC50 (KRas G12D): 12.7 µM
- IC50 (KRas G12V): 1.86 µM
- IC50 (KRas G12R): 2.5 µM
- IC50 (KRas G12A): 1.65 µM
- IC50 (KRas G12S): 2.07 µM
- IC50 (KRas G12C): 0.863 µM
- IC50 (KRas WT): 4.29 µM

SMILES: O=CNC1CCCN(c2nc(OCC34CCCN3CCC4)nc3c(F)c(-c4cccc5cccc(F)c45)ncc23)C1 (stereo not drawn) [Example 242, N-(1-(8-fluoro-7-(8-fluoronaphthalen-1-yl)-2-((hexahydro-1H-pyrrolizin-7a-yl)methoxy)pyrido[4,3-d]pyrimidin-4-yl)piperidin-3-yl)formamide]
- IC50 (KRas G13D): 7860 nM
- IC50 (KRas Q61H): 13600 nM
- IC50 (KRas G12D): 8.03 µM
- IC50 (KRas G12V): 7.63 µM
- IC50 (KRas G12R): 13 µM
- IC50 (KRas G12A): 8.19 µM
- IC50 (KRas G12S): 6.23 µM
- IC50 (KRas G12C): 6.96 µM
- IC50 (KRas WT): 11 µM

SMILES: CC1(O)CCCN(c2nc(OCC34CCCN3CCC4)nc3c(F)c(-c4cccc5cccc(F)c45)ncc23)C1 (stereo not drawn) [Example 17, 1-(8-fluoro-7-(8-fluoronaphthalen-1-yl)-2-((hexahydro-1H-pyrrolizin-7a-yl)methoxy)pyrido[4,3-d]pyrimidin-4-yl)-3-methylpiperidin-3-ol]
- IC50 (KRas G13D): 925 nM
- IC50 (KRas Q61H): 1860 nM
- IC50 (KRas G12D): 0.746 µM
- IC50 (KRas G12V): 1.49 µM
- IC50 (KRas G12R): 2.23 µM
- IC50 (KRas G12A): 0.961 µM
- IC50 (KRas G12S): 0.921 µM
- IC50 (KRas G12C): 1.19 µM
- IC50 (KRas WT): 0.956 µM

SMILES: Fc1c(-c2cccc3cccc(F)c23)ncc2c(N3CC(c4ccncc4)C3)nc(OCC34CCCN3CCC4)nc12 [Example 213, 8-fluoro-7-(8-fluoronaphthalen-1-yl)-4-(3-(pyridin-4-yl)azetidin-1-yl)-2-((tetrahydro-1H-pyrrolizin-7a(5H)-yl)methoxy)pyrido[4,3-d]pyrimidine]
- IC50 (KRas G13D): 20500 nM
- IC50 (KRas Q61H): 17700 nM
- IC50 (KRas G12D): ≥ 100 µM
- IC50 (KRas G12V): 5.57 µM
- IC50 (KRas G12R): 4.25 µM
- IC50 (KRas G12A): 6.19 µM
- IC50 (KRas G12S): 7.25 µM
- IC50 (KRas G12C): 4.2 µM
- IC50 (KRas WT): 16.8 µM
